For one compound, half-life results are on record in patent US6838557B1, “Process for making a chelating agent for labeling biomolecules using preformed active esters” (Board of Regents The University of Texas System, priority 2002, dated 2005).

A short description of the series: Stability of DOTA mono-NHS in water by 1H NMR (rate of change in the ratio Afree/Abound). The settings on record: neutral pH, read-out: half-life for hydrolysis. Format: physicochemical.

Description: For example, ^1H NMR spectra, such as that illustrated in FIG. 1, were used to measure the ratio of the areas (Afree/Abound) of the ^1H NMR signal corresponding to NHS free in solution (δfree −2.6 ppm; Free NHS), relative to the signal corresponding to NHS covalently bound to DOTA (δbound −2.85 ppm; Bound NHS). […] Similar results were obtained by measuring the relative areas of the ^13C signals corresponding to free and bound NHS (δbound −25.5 ppm and δfree −25.2 ppm; FIG. 2).
Similar to that described above, the NMR data was used to estimate the percentage of free NHS. […] The stability of DOTA mono-NHS in water was also assessed using ^1H NMR by measuring the rate of change in the ratio Afree/Abound at neutral pH.

The term half-life denotes the time in which the quantity being followed falls by half. `O=C(O)CN1CCN(CC(=O)O)CCN(CC(=O)ON2C(=O)CCC2=O)CCN(CC(=O)O)CC1` [DOTA mono-NHS, 1,4,7,10-tetraazacyclododecane-1,4,7,10-tetra(aceticacid)-10-mono(N-hydroxysuccinimidyl ester)]: the half-life is roughly 30 min.
